Reference: the METLIN SMRT retention time set (Domingo-Almenara et al. 2019)

Test: gradient 5% acetonitrile 3 min, to 50% in 2 min, to 85% in 15 min, held 3 min, 100 µL/min
Conditions: column: Zorbax Extend-C18 2.1 x 50 mm; eluents: water / acetonitrile, 0.1% formic acid
Summary of the method: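 Retention times of pure standards were taken from adduct peaks that were selected by computer and manually inspected. Over 3 months, mixtures of ~100 molecules were run by HPLC–quadrupole time-of-flight mass spectrometry in positive and negative ionization mode. The Zorbax Extend-C18 column (2.1 × 50 mm, 1.8 μm) ran at 100 μL/min in water and acetonitrile, each containing 0.1% formic acid, with 40 μL dead volume and 900 μL dwell volume.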

Compound | RP-LC retention time
CCS(=O)(=O)c1nc2ccc(NS(=O)(=O)c3ccc(C(C)(C)C)cc3)cc2s1 | 1040 s
Cc1cc(NC(=O)c2cc(C)n3nccc3n2)ccc1F | 942 s
COc1ccc(C(=O)NCCc2sc(-c3cccnc3)nc2C)cc1 | 619 s
Cc1nn(-c2ccccc2)c2ccn(CC(=O)N3CCN(c4ccc(Cl)cc4)CC3)c(=O)c12 | 948 s
CC1=CC2=C(C=O)C(=O)[C@](C)(O)[C@@H](O)C2=CO1 | 636 s
Cc1oc(-c2ccc(NC(=O)CC(C)(C)C)cc2)nc1Cn1cccn1 | 883 s
CCOc1ccc(NC(=O)NC(C)C(=O)N2CCc3ccccc32)cc1 (stereo not given) | 855 s
O=C(OCc1cc(-c2cccs2)on1)c1cc(-c2ccco2)n[nH]1 | 786 s
COc1ccc(NC(=O)Cn2cc(C(=O)N3CCCC3)c(=O)c3ccc(C)nc32)cc1 | 667 s
CCCN1C(=O)COc2cc(-c3noc(C(=O)NCCC(C)C)n3)ccc21 | 1060 s
Cn1c(CC2CCN(C(=O)c3ccccc3Cl)C2)nc2cccnc21 (stereo not given) | 572 s
Cc1nc(Nc2ccc(F)cn2)sc1C(=O)N1CCN(c2ccccc2)CC1 | 875 s
O=C(NCc1ccc2c(c1)OCO2)c1ccc2c(c1)NC(=O)C1CCCCN21 (stereo not given) | 765 s
COc1ccc2cc(C(=O)N3CCC(CC(=O)NCC4CCCO4)CC3)[nH]c2c1 (stereo not given) | 681 s
CCCCN(C)C(=O)c1cc2c(s1)N(CC)CCCC2 | 1100 s
CC(C)NC(=O)c1nnc(-c2ccc(S(=O)(=O)N(C)C)cc2)o1 | 737 s
Cc1csc(C(=O)Nc2ccc(CC(=O)N3CCC(O)CC3)cc2)c1 | 635 s
COc1cccc(-c2nnc(Cc3nc(-c4cccc(C)c4)no3)o2)c1 | 1050 s
O=C(c1nnc(-c2ccc(S(=O)(=O)N3CCOCC3)cc2)o1)N1CCN(c2ccccc2)CC1 | 905 s
CCCCNC(=O)CC1CCN(C(=O)c2[nH]c(C)c(C)c2C)CC1 | 764 s
COCCc1noc([C@@H]2CC(F)(F)CN2C(=O)c2ccco2)n1 | 716 s
COc1ccc(OC)c(CNC(=O)C2CCCN(c3nccnc3Sc3ccc(C)cc3)C2)c1 (stereo not given) | 1070 s
Cc1ccc(NC(=O)N2CCC(n3cnc4ccc(C)cc4c3=O)CC2)cc1 | 801 s

Compound | RP-LC retention time
Cc1cnn(CC(=O)N2CCCCCCNC(=O)[C@@H]3CCCC[C@@H]32)c1 | 716 s
O=C(CCCN1CCN(Cc2ccc(F)cc2)C(=O)C1=O)NCCc1ccc(Cl)cc1 | 733 s
O=C(COc1cc(O)c2c(=O)cc(-c3ccccc3)oc2c1)OCc1ccccc1 | 1200 s
Cc1ccc(-n2c(=O)c3c(cc(C)n3C)n(CC(=O)Nc3cc(C)ccc3C)c2=O)cc1 | 906 s
Cc1ccccc1CNC(=O)CN1C(=O)CCCc2cc(S(=O)(=O)N3CCC(C)CC3)ccc21 | 975 s
O=C(c1cc2ccccc2[nH]1)N1CCN(c2cc(-c3cccs3)[nH]n2)CC1 | 832 s
COCC(=O)N1CCc2c(c(-c3nnc(-c4ccccc4Cl)o3)nn2C)C1 | 689 s
CCOc1ccc(Nc2c(C(=O)N3CCSCC3)cnc3nc(C)ccc23)cc1 | 642 s
Cc1ccc(N2CN(Cc3ccccc3)S(=O)(=O)c3cccnc32)cc1 | 1130 s
CCC(=O)Nc1ccc2c(c1)CN(C(=O)c1ccccc1)C(C(=O)N1CCCC1)C2 (stereo not given) | 667 s
Cc1ccc(C(=O)Nc2cnc(-c3ccc(Cl)cc3)nc2)s1 | 1130 s
CS(=O)(=O)N1CCC(OC2CCN(C(=O)Nc3ccccc3)CC2)CC1 | 709 s
Cc1ccc(NC(=O)C(C)Oc2cc(C(F)(F)F)c3c(C)nn(C)c3n2)c(C)c1 (stereo not given) | 920 s
COc1ccc(OC)c(CNC(=O)C2CCN(c3cnc4nccnc4c3)CC2)c1 | 680 s
O=C([C@@H]1C[C@H](Oc2ccccc2)CN1C(=O)c1n[nH]c2ccccc12)N1CCCC1 | 802 s
Cc1nc(-c2noc(-c3ccc(F)cc3)n2)cn1CC(=O)NCc1ccccc1F | 824 s
CC1CCCCN1S(=O)(=O)c1ccc2nc(N3CCN(c4ccccn4)CC3)ccc2c1 (stereo not given) | 674 s
O=C(CSc1nc2ncccc2[nH]1)Nc1ccc(Br)cc1F | 720 s
c1cc2c(cc1-c1nnc(C3CC3)o1)OCO2 | 781 s
Cc1ccc(S(=O)(=O)NCCC(=O)O)cc1C | 639 s
CC(C)Oc1ccc(-c2noc(Cn3c(=O)n(-c4cccc(F)c4)c(=O)c4sccc43)n2)cc1 | 1090 s
Cc1ccccc1Oc1nccnc1N1CCCC(C(=O)NCc2ccc(Br)cc2)C1 (stereo not given) | 960 s
Cc1ccc(NC(=O)N2CCCC2c2nc(-c3ccccc3C)no2)cc1 (stereo not given) | 598 s

Compound | RP-LC retention time
COC(=O)c1ccc2c(=O)n(-c3cccc(OC)c3)c(N3CCCCCC3)nc2c1 | 1210 s
CCOC(=O)N1CCN(c2nc(F)c3c(c2F)S(=O)(=O)CCN3C2CCCCC2)CC1 | 1170 s
Cc1ccc(CN2C[C@]34C=C[C@H](O3)[C@@H](C(=O)NCc3ccccc3)[C@H]4C2=O)cc1 | 822 s
CCc1cccc(NC(=O)N2CCc3nc[nH]c3C2)c1 | 606 s
CN1Cc2sccc2C(c2ccc(O)c(O)c2)C1 (stereo not given) | 628 s
Cc1ccc(NC(=O)Cn2c(C)nc3c(sc4nc(-c5ccccc5)ccc43)c2=O)c(Cl)c1 | 1140 s
Cc1ccc(C)c(NC(=O)C2CCC(=O)N2S(=O)(=O)c2ccc(C)c(C)c2)c1 (stereo not given) | 962 s
COc1cccc(-n2cc(C(=O)O)c3ccccc3c2=O)c1 | 760 s
CC1CCN(c2nn(CC(=O)Nc3ccc4c(c3)CCC4)c(=O)c3ccccc23)CC1 | 1250 s
Cc1ccc(-c2nocc2CCC(=O)NC(C)c2ccc(F)cc2)cc1 (stereo not given) | 953 s
CCOC(=O)C1CCCN(S(=O)(=O)c2cc(-c3nc(C)c(C)s3)sc2C)C1 (stereo not given) | 1170 s
O=C([C@@H]1C[C@H](F)CN1S(=O)(=O)c1ccccc1F)N1CCc2ccccc2C1 | 887 s
Cc1ccc2c(c1)C(=O)NC1(CCN(C(=O)Cc3ccccc3C)CC1)N2C | 820 s
O=C(Nc1cccs1)N1CCC(c2ccccc2)C1 (stereo not given) | 810 s
COC(=O)c1ccc(-c2nc3cnccn3c2Nc2ccc(C)cc2Br)cc1 | 1060 s
COc1ccc(-c2cc3nc(C)cc(N4CCN(c5nc(C)cc(C)n5)CC4)n3n2)cc1OC | 735 s
O=C(CC1CCCC1)NCCC1CCN(C(=O)Nc2ccc(F)cc2F)CC1 | 812 s
COc1ccc2[nH]c(C(=O)NC3CC3)cc2c1 | 703 s
O=C(NC1CC1)C1CCCN(C(=O)c2cc(-c3ccccn3)n[nH]2)C1 (stereo not given) | 577 s
COc1ccc(Cc2nnc(N)o2)cc1 | 596 s
Cc1ccc(-n2cc(C(=O)N3CCC(C(N)=O)CC3)nn2)cc1 | 641 s
CC(C)COc1ccc(C(=O)N(Cc2ccc(Br)o2)C2CCS(=O)(=O)C2)cc1 (stereo not given) | 1050 s
Cc1nc2cccnc2n1C1CCN(C(=O)Nc2ccc3c(c2)CCC3)C1 (stereo not given) | 620 s

Compound | RP-LC retention time
CCCn1c(-c2cccc(C(=O)N3CCC4(CC3)OCCO4)c2)nc2cccnc21 | 684 s
O=C(Cn1nc2nc(N3CCCC3)ccn2c1=O)NCc1ccc(F)c(Cl)c1 | 670 s
Cc1cc(-c2nnc(-c3ccco3)o2)c(C)n1CC(=O)NCc1ccccc1 | 826 s
O=C(Nc1ccc(F)cc1)c1ccc(Cl)s1 | 908 s
O=C1CCCc2nc(N3CCN(c4ccccn4)CC3)nc(Nc3ccccc3)c21 | 735 s
Cc1ccccc1-c1nc2cnccn2c1NCCC(=O)NC(C)C | 605 s
O=C(c1ccc(OCC2CCCN2C(=O)c2ccc(F)cc2)cc1)N1CCCC1 (stereo not given) | 829 s
CC1CN(C(=O)COc2ccc3ccccc3c2)c2ccccc2NC1=O (stereo not given) | 825 s
CCN1CCN(S(=O)(=O)c2ccc(Cl)c(C(F)(F)F)c2)CC1 | 569 s
CCc1ccccc1NS(=O)(=O)c1cc(-c2nc(C(C)(C)C)cs2)cs1 | 1290 s
Cc1csc(-c2ccc(N3CCN(C(=O)c4nccc5ccccc45)CC3)nc2)n1 | 829 s
O=C(Cn1ncc2c(c1=O)N(C1CC1)C(=O)CS2)NCCc1ccc(Cl)cc1 | 755 s
O=C(NCC1CCN(C(=O)COc2ccccc2)CC1)c1ccccc1C(F)(F)F | 753 s
COCCCNC(=O)C1CCCN(c2nccnc2Sc2ccccc2)C1 (stereo not given) | 849 s
COCCOC1CCC12CCN(C(=O)c1cn[nH]c1)CC2 (stereo not given) | 617 s
Cc1ccc(-c2nc(NC(=O)CCCOc3ccccc3C)sc2C)cc1 | 1270 s
O=C(COc1ccccc1F)N1CC(c2nc3ccccc3[nH]2)C1 | 578 s
CCOc1ccc(NS(=O)(=O)c2c(C)sc(C)c2-c2cc(C(F)(F)F)on2)cc1 | 1220 s
CC1CC(=O)NN=C1c1ccc(N)c([N+](=O)[O-])c1 (stereo not given) | 612 s
CC(C)c1cccc(NC(=O)Cn2ncc3c(c2=O)N(C2CC2)C(=O)CS3)c1 | 812 s
Cc1nc(C(=O)NCC2CCCCC2)c(C)o1 | 922 s
